Results taken from paper PMC9515472, “The AhR ligand phthiocol and vitamin K analogs as Pseudomonas aeruginosa quorum sensing inhibitors” (Frontiers in Microbiology, 2022).
Where two headings read alike, the source gives them in different places.

Tests used:
AHRR = test: qRT-PCR of AhR downstream gene AHRR in THP-1 cells; format: cell-based, human; conditions: for AHRR expression change in THP-1 AhR KD cells: THP-1 AhR-Knockdown (KD) cells; for AHRR transcription promoted: vs DMSO, increase
[1] = tested on: P. aeruginosa pqs QS system (pqsA-gfp); format: cell-based, Pseudomonas aeruginosa
CYP1B1 = test: qRT-PCR of AhR downstream gene CYP1B1 in THP-1 cells; conditions: for CYP1B1 expression change in THP-1 AhR KD cells: THP-1 AhR-Knockdown (KD) cells
P. aeruginosa PAO1 = format: cell-based, Pseudomonas aeruginosa
[2] = target: T1, human recombinant AhR protein (Homo sapiens, UniProt P35869); test: Microscale thermophoresis (MST) binding to AhR protein
T1 sequence (P35869 128-399): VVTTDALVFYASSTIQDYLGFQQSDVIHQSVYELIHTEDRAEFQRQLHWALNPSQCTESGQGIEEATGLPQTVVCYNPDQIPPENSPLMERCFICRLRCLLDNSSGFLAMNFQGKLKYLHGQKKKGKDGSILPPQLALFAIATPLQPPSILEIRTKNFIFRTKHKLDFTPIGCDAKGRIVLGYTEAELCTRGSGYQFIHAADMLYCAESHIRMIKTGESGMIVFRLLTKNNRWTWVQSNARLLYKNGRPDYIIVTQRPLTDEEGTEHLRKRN

[3] = tested on: P. aeruginosa pqs QS system (pqsA-gfp); format: cell-based, Pseudomonas aeruginosa; remark: listed apart in the source
[4] = tested on: P. aeruginosa PAO1 pyocyanin production; test: Pyocyanin quantification assay; format: cell-based, Pseudomonas aeruginosa
P.aeruginosa = tested on: P.aeruginosa; set-up: method as in Shinde and Wadekar, 2018; conditions: due to metal ion chelating capacity; ref Shinde and Wadekar, 2018; cited from earlier work
[5] = tested on: P. aeruginosa PAO1 biofilm formation; test: Biofilm formation assay (crystal violet staining); format: cell-based, Pseudomonas aeruginosa
[6] = target: PqsR binding to the pqsA promoter (Pseudomonas aeruginosa, UniProt Q9I4X0); test: Electrophoretic mobility shift assay (EMSA) with biotinylated pqsA promoter and cell lysates; format: biochemical; conditions: PAO1 WT cell lysates
[7] = tested on: P. aeruginosa rhamnolipid productions; format: cell-based, Pseudomonas aeruginosa; conditions: Supplementary Figure 1
[8] = tested on: P. aeruginosa PAO1 proteome; format: cell-based, Pseudomonas aeruginosa; conditions: Bac_Pht vs Bac
[9] = 10 μM, THP-1 human monocytes, 24 h, vs DMSO alone, repression
[10] = 10 μM, THP-1 human monocytes, 24 h

Sequence of PqsR binding to the pqsA promoter (Q9I4X0 whole entry): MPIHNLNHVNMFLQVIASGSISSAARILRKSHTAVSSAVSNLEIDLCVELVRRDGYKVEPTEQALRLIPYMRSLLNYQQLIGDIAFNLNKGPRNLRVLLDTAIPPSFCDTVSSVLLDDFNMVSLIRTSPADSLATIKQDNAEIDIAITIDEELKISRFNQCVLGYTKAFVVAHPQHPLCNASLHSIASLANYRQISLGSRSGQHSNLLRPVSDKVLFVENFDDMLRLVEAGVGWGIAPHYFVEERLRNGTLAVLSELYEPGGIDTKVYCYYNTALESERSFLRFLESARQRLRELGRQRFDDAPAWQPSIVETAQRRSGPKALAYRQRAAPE

Structure (SMILES) | AHRR expression change in THP-1 AhR KD cells (AHRR) | induction of pqsA-gfp expression [1] | CYP1B1 expression change in THP-1 AhR KD cells (CYP1B1) | effect on growth of P. aeruginosa (P. aeruginosa PAO1) | Kd [2] | AHRR transcription promoted (AHRR; [10]) | inhibition of pqsA-gfp expression [3] | further results
CCCCCCCc1[nH]c2ccccc2c(=O)c1O [PQS, 2-heptyl-3-hydroxy-4 (1H)-quinolone] | no significant expression changes | induced the pqsA-gfp expression in a dose-dependent manner | no significant expression changes | could not affect the growth | 3750 nM | – | – | AHRR transcription repressed (AHRR; [9]): 2.5 fold; CYP1B1 transcription repressed (CYP1B1; [9]): 2.3 fold
CC1=C(O)C(=O)c2ccccc2C1=O [Pht, 2-hydroxy-3-methyl-1,4-naphthoquinone] | – | not | – | could not affect the growth | 474 nM | 1.9 fold | inhibit pqsA-gfp expression in a dose-dependent manner | optimal concentration for inhibition of pqsA-gfp expression ([3]; PAO1 PpqsA-gfp strain): 750 nM; CYP1B1 transcription promoted (CYP1B1; 10 μM, THP-1 human monocytes, 24 h, vs DMSO, increase): 2.2 fold; pyocyanin production [4]: suppressed by Pht to a level comparable to that of PAO1 ΔlasIΔrhlI strain and the ΔpqsC strain; anti-P.aeruginosa activity (P.aeruginosa): moderate; biofilm formation [5]: suppressed by Pht to a level comparable to that of the PAO1 ΔlasIΔrhlI and the ΔpqsC strains; effect on binding of PqsR (PAO1 cell lysates) to Bio-pqsA promoter [6]: attenuated the interaction between PAO1 cell lysates and Bio-pqsA; rhamnolipid production [7]: did not inhibit; FC(group2_group1) ([8]; PA1768, Zn_protease domain-containing protein, pValue 0.168581, Sig 0): 0.5758; FC(group2_group1) ([8]; PA4677, Dipeptidase, pValue 0.361511, Sig 0): 0.5653; FC(group2_group1) ([8]; PA5194, acidPPc domain-containing protein, pValue 0.333715, Sig 0): 0.5551; FC(group2_group1) ([8]; PA5195, Heat shock protein 15, pValue 0.131054, Sig 0): 0.3354; FC(group2_group1) ([8]; PA5437, Probable transcriptional regulator, pValue 0.358265, Sig 0): 0.4217
CC1=C(C/C=C(\C)CCC[C@H](C)CCC[C@H](C)CCCC(C)C)C(=O)c2ccccc2C1=O [Vitamin K1, Phylloquinone] | no change | – | no change | without affecting growth | 1990 nM | 1.6 fold | inhibit pqsA-gfp expression dose-dependently | –
CC(C)=CCC/C(C)=C/CC/C(C)=C/CC/C(C)=C/CC1=C(C)C(=O)c2ccccc2C1=O [Vitamin K2, Menaquinones] | – | – | – | without affecting growth | 586 nM | – | inhibit pqsA-gfp expression dose-dependently | –
CC1=CC(=O)c2ccccc2C1=O [Vitamin K3, Menadione] | – | – | – | without affecting growth | 2170 nM | – | inhibit pqsA-gfp expression dose-dependently | –
